Test [1] has as its system LPS induced TNF-α response. The test is described as follows: In vivo screening model of LPS induced TNF-α response in mice. To be noted: Mus musculus, mice (C3H/HeN), dosed 1 hour prior to LPS, plasma TNF-α 80-90 minutes after LPS, vs LPS treated control group, read-out: In vivo inhibition of LPS induced TNF-α production (in %). Put shortly: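 Female C3H/HeN mice (~8 weeks) dosed with compound in suspension vehicle at 10 mg/kg 1 h before ip LPS (E. coli 055:B5, 1.0 mg/kg); plasma drawn 80-90 min post-LPS. TNF-α measured by sandwich ELISA (OD 450 nm minus 620 nm). Reported as % inhibition versus LPS-treated controls, Mann-Whitney test.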

In a further test the target is T1, p38α MAP kinase (Homo sapiens, UniProt Q16539).
T1 construct: made in house; host or cells: COS-1 cells (transient co-transfection; anti-FLAG M2 immunoprecipitation)
The test is described as follows: p38α MAP kinase assay (immunoprecipitated FLAG-p38α, GST-ATF-2 substrate). Format: biochemical. The following applies: FLAG-p38α from COS-1 cells, 50 μM ATP; read-out: p38 MAP kinase IC50. On the procedure: COS-1 cells (derived from African green monkey kidney fibroblast-like cell containing wild-type T antigen under control of the SV40 promotor) were obtained from ATCC (ATCC no. CRL-1650) and grown in growth medium (DMEM without phenoired, 10% FCS, 2 mM L-glutamine, 100 U penicillin and 100 μg streptomycin/ml) at 37° C. with 5% CO2. The cells were passaged twice a week by trypsination (0.25% trypsin, 1 mM EDTA in PBS) and were split 1:10. The medium was changed every second or third day. The cell line was regularly tested with the Mycoplasma PCR Primer Set (Stratagene) and found to be free of Mycoplasma. Tissue culture media, FCS, L-glutamine and penicillin and streptomycin are from Bribco BRL, Gaithersburg, Md., USA.
Transient Expression of COS-1 Cells
On day one COS-1 cells were seeded in 143 cm^2 petri dish with a density of 2×10^4 celler/cm^2 in growth medium. At day 2 the cells were co-transfected with 5 μg (total) of experimental plasmid DNA, expressing the FLAG-p38α and FLAG-MKK6(EE). The plasmids were introduced into the COS-1 cells in serum-free medium using DOTAP™ (Boehringer-Mannheim, Mannheim, Germany). Plasmid DNA was prepared and purified using the QIAGEN EndoToxin-free Maxiprep-500 kit (Hilden, Germany). Briefly, DNA and DOTAP™ were mixed for exactly 15 min. at 37° C. In the CO2 incubator. […]

In another test the test system is IL-1β. The test is described as follows: Inhibition of IL-1β secretion in LPS stimulated peripheral blood mononuclear cells. Format: cell-based. The following applies: PBMC; LPS stimulated human peripheral blood mononuclear cells, 18 hours, ELISA; read-out: The median inhibition concentration (IC50, nM) of IL-1β. Put shortly: (§1)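 Human PBMCs (5×10^5 cells/ml, RPMI 1640 + 2% FCS) pre-treated with compound 30 min, then stimulated with LPS ([…]) for 18 h. Secreted IL-1β and TNF-α quantified by ELISA; IC50 values calculated.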
(In an ELISA, binding on a coated surface is turned into a signal by an enzyme label.)

For a further test, the system named is TNF-α. Description: Inhibition of TNF-α secretion in LPS stimulated peripheral blood mononuclear cells. The following applies: PBMC; LPS stimulated human peripheral blood mononuclear cells, 18 hours, ELISA; read-out: The median inhibition concentration (IC50, nM) of TNF-α. Format: cell-based. The gist of the method:
as §1

The values that follow come from patent US7977387B2, “Aminobenzophenone compounds” (Leo Pharma A/S, priority 2003, dated 2011).

T1 sequence (Q16539 whole entry): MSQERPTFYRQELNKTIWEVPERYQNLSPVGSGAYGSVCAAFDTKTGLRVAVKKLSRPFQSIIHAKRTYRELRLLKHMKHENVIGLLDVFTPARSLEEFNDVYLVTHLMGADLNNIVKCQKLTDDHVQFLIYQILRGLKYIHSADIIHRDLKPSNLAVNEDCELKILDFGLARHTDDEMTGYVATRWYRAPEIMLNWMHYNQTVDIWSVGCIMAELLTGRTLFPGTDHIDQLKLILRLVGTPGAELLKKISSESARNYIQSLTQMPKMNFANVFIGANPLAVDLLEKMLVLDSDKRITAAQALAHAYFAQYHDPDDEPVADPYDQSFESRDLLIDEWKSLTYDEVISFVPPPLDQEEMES

As a reminder, the inhibition is how much of the control response was suppressed. As to `Cc1ccc(C(=O)NCCO)cc1C(=O)c1ccc(Nc2ccccc2N)cc1Cl` [Compound 112, 3-[4-(2-Aminophenylamino)-2-chlorobenzoyl]-N-(2-hydroxyethyl)-4-methylbenzamide], in test [1], the inhibition at 10 mg/kg turned out to be 96%. Further, the IC50 turned out to be 2 nM at p38α MAP kinase, 4 nM in the test on IL-1β and 0.6 nM in the test on TNF-α.
